In patent US11203610B2, “2′3′ cyclic dinucleotides with phosphonate bond activating the sting adaptor protein” (INSTITUTE OF ORGANIC CHEMISTRY AND BIOCHEMISTRY ASCR, V.V.I., priority 2017, dated 2021):

How the values were obtained:
AQ STING (G230A-R293Q) = biological target: T1, AQ STING (G230A-R293Q) (Homo sapiens, UniProt Q86WV6, G230A/H232R/R293Q); test: Differential Scanning Fluorimetry with AQ STING; format: binding; conditions: thermal shift vs STING apoprotein; 150 μM CDN; 0.1 mg/ml truncated human AQ STING; SYPRO Orange; read-out: DSF ΔTm (° C.) AQ STING
T1 construct: truncated human WT STING or AQ STING (amino acid residues 140-343); 8xHis (N, cleaved yes); SUMO (N, cleaved yes); made in house; host or cells: E. coli Rosetta-gami B (DE3)
T1 sequence (Q86WV6 140-343 G230A/H232R/R293Q): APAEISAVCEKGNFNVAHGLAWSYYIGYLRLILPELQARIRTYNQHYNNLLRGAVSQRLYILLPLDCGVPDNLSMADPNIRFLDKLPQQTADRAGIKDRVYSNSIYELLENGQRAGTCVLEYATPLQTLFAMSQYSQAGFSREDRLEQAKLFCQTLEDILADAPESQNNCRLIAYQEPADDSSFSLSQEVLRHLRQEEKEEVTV
Method: (§1) WT STING and AQ STING Proteins
(§2) Purified PCR products were cleaved with restriction enzymes BamHI (cat. #R0136S, NEB, Ipswich, USA) and NotI (cat. #R0189S, NEB, Ipswich, USA) and cloned into the pSUMO vector linearized with the identical enzymes.
(§3) The resin was poured into a chromatography column, washed with 50 ml buffer A (50 mmol·l^−1 TrisCl (pH 8.0), 800 mmol·l^−1 NaCl, 3 mmol·l^−1 β-mercaptol; 10% glycerol; 20 mmol·l^−1 imidazole) and 8-His-SUMO tagged STING proteins were eluted with 15 ml buffer A containing 300 mmol·l^−1 imidazole. […] Proteins were concentrated with Amicon® Ultra-15 10 K device (cat. #UFC901008, Merck Millipore, Billerica, USA) and flash frozen in liquid N2.
(§4) Differential Scanning Fluorimetry with WT STING and AQ STING
(§5) 20 μL solutions of the reaction mixtures were pipetted in triplicates into 96 well optical reaction plates and thermal denaturation of samples were performed on real time PCR cycler (LightCycler® 480 Instrument II—Roche, Basel, Switzerland). The first derivative of the thermal denaturation curves was performed to calculate denaturing temperatures of STING—CDN complexes and STING apoproteins. The thermal shift for each CDN was calculated by subtracting the average denaturing temperature of STING apoprotein from the average denaturing temperature of STING CDN complex.

WT STING [1] = biological target: T2, WT STING (Homo sapiens, UniProt Q86WV6, H232R); test: Digitonin assay using 293T wtSTING-FL reporter cells; format: cell-based; conditions: 293T wtSTING-FL cells; 30 minutes in Digitonin buffer, then 5 hours; ISRE firefly luciferase reporter; 8-point dose-response curve; read-out: Digitonin assay EC50 (μmol · l^−1) WT STING
Text: ISRE Reporter Plasmid (pGL64.27-4xISRE)
Two complementary oligonucleotides of the sequence […] […] […] […] […] The oligonucleotides were mixed in equal molar amounts, hybridized, and cleaved by restriction endonucleases HindIII (cat. #. R0104S, NEB, Ipswich, USA) and BglII (cat. #R0144S, NEB, Ipswich, USA). Ultimately, they were ligated into plasmid pGL4.27 (cat. #E6651, Promega, Madison, USA) linearized with the same enzymes. As result the sequence with four ISRE sites was placed upstream of the minimum promoter of firefly luciferase reporter gene.
After 5 minutes incubation at room temperature (RT), 250 μL of the mixture was added dropwise to the cells in one well. Cells were incubated 36 hours at 37° C. with 5% CO2, and then detached with 0.05% Trypsin and 0.22 g/L EDTA (both cat. #L0941, Biowest, Riverside, USA).
Transfected cells were seeded onto poly-D-lysine coated six well plates at density 50,000 cells per 1 cm^2 in DMEM medium with high glucose containing 10% heat inactivated FBS, 30 g/mL blasticidin (cat. #ant-bl-05, InvivoGen, San Diego, USA), 0.06 mg/ml Penicillin G and 0.1 mg/ml Streptomycin Sulfate (both cat. #. L0018, Biowest, Riverside, USA). The medium was replenished every 3-4 days until visible colonies of cells resistant to blasticidin were formed.
Blasticidin resistant cells stably expressing WT STING were further transfected with […] plasmid following the same procedure as described above. […] Homogeneous culture of stably double transfected cells was prepared by limiting dilution of cells in 96 well plates and wells with cells were selected that originated from a single cell.
The medium was removed next day and three fold serial dilutions of compounds in Digitonin buffer containing 50 mmol·l^−1 HEPES (cat. #H3375, Sigma Aldrich, Czech Republic) pH 7.0, 100 mmol·l^−1 KCl, 3 mmol·l^−1 MgCl2, 0.1 mmol·l^−1 DTT (cat. #D0632, Sigma Aldrich, Czech Republic), 85 mmol·l^−1 Sucrose (cat. #S7903, Sigma Aldrich, Czech Republic), 0.2% BSA (cat. #A2153, Sigma Aldrich, Czech Republic), 1 mmol·l^−1 ATP (cat. #A1852, Sigma Aldrich, Czech Republic), 0.1 mmol·l^−1 GTP (cat. #G8877, Sigma Aldrich, Czech Republic), and 10 μg/mL Digitonin A (cat. #D141, Sigma Aldrich, Czech Republic) were added to the cells. The buffer was removed after 30 minutes incubation at 37° C. with 5% CO2, the cells were washed once with 100 μl of cultivation medium, and 100 μl of medium was added to each well. The plates with cells were incubated for 5 hours at 37° C. with 5% CO2, 50 μl of the medium was removed and 30 μl of ONE-Glo™ Luciferase Assay System reagent (cat. #E6120, Promega, Madison, USA) was added to each well. Luminescence was read on Synergy H1 (Biotek, Winooski, USA).
Target sequence in this assay (Q86WV6 whole entry H232R): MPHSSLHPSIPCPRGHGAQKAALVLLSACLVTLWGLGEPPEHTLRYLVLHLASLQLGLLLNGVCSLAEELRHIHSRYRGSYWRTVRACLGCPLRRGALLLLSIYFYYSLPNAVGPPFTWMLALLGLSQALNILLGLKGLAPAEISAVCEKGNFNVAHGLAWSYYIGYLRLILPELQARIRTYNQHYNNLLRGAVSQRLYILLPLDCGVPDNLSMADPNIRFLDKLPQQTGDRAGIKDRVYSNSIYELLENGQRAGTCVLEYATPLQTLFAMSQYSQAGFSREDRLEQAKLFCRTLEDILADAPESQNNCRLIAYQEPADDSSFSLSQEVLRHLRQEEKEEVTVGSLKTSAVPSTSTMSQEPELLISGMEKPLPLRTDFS

WT STING [2] = biological target: T2, WT STING; test: Differential Scanning Fluorimetry with WT STING; format: binding; design: truncated human WT STING or AQ STING (amino acid residues 140-343); 8xHis (N, cleaved yes); SUMO (N, cleaved yes); made in house; host or cells: E. coli Rosetta-gami B (DE3); conditions: thermal shift vs STING apoprotein; 150 μM CDN; 0.1 mg/ml truncated human WT STING; SYPRO Orange; read-out: DSF ΔTm (° C.) WT STING
Method: as §1, §2, §3, §4, §5
Target sequence in this assay (Q86WV6 140-343 H232R): as the sequence (Q86WV6 140-343 G230A/H232R/R293Q) above, with A91G, Q154R counted along it

| ΔTm at 150 µM (AQ STING (G230A-R293Q)) [°C] | EC50 (WT STING [1]) [nM] | ΔTm at 150 µM (WT STING [2]) [°C] | Compound |
| --- | --- | --- | --- |
| 17.5 | 20 | 11.9 | Nc1nc(N)c2ncn([C@@H]3O[C@@H]4COP(=O)(O)O[C@@H]5[C@H](O)[C@@H](OCP(=O)(O)O[C@H]4[C@H]3O)O[C@H]5n3cnc4c(=O)[nH]c(N)nc43)c2n1 [Compound 50, (1R,6R,8R,9R,10S,15R,17R,18S)-17-(2-amino-6-oxo-6,9-dihydro-1H-purin-9-yl)-8-(2,6-diamino-9H-purin-9-yl)-3,9,12,18-tetrahydroxy-2,4,7,11,14,16-hexaoxa-3λ^5,12λ^5-diphosphatricyclo[13.2.1.0^6,10]octadecane-3,12-dione] |
| 15.9 | 10 | 8.6 | CSc1ncnc2c1ncn2[C@@H]1O[C@@H]2COP(=O)(O)O[C@@H]3[C@H](O)[C@@H](OCP(=O)(O)O[C@H]2[C@H]1O)O[C@H]3n1cnc2c(=O)[nH]c(N)nc21 [Compound 51, (1R,6R,8R,9R,10S,15R,17R,18S)-17-(2-amino-6-oxo-6,9-dihydro-1H-purin-9-yl)-3,9,12,18-tetrahydroxy-8-[6-(methylsulfanyl)-9H-purin-9-yl]-2,4,7,11,14,16-hexaoxa-3λ^5,12λ^5-diphosphatricyclo[13.2.1.0^6,10]octadecane-3,12-dione] |
| 20.1 | 30 | 13.9 | Nc1nc2c(ncn2[C@@H]2O[C@@H]3OCP(=O)(O)O[C@H]4[C@H](O)[C@H](n5cnc6c(N)nc(F)nc65)O[C@@H]4COP(=O)(O)O[C@@H]2[C@@H]3O)c(=O)[nH]1 [Compound 52, (1R,6R,8R,9S,10S,15R,17R,18S)-8-(6-amino-2-fluoro-9H-purin-9-yl)-17-(2-amino-6-oxo-6,9-dihydro-1H-purin-9-yl)-3,9,12,18-tetrahydroxy-2,4,7,11,14,16-hexaoxa-3λ^5,12λ^5-diphosphatricyclo[13.2.1.0^6,10]octadecane-3,12-dione] |
| 12.9 | 40 | 6.6 | C#Cc1cn([C@@H]2O[C@@H]3COP(=O)(O)O[C@@H]4[C@H](O)[C@@H](OCP(=O)(O)O[C@H]3[C@H]2O)O[C@H]4n2cnc3c(=O)[nH]c(N)nc32)c2ncnc(N)c12 [Compound 53, (1R,6R,8R,9R,10S,15R,17R,18S)-8-{4-amino-5-ethynyl-7H-pyrrolo[2,3-d]pyrimidin-7-yl}-17-(2-amino-6-oxo-6,9-dihydro-1H-purin-9-yl)-3,9,12,18-tetrahydroxy-2,4,7,11,14,16-hexaoxa-3λ^5,12λ^5-diphosphatricyclo[13.2.1.0^6,10]octadecane-3,12-dione] |
| 19.9 | 12 | 13 | Nc1nc2c(ncn2[C@@H]2O[C@@H]3OCP(=O)(O)O[C@H]4[C@@H](F)[C@H](n5cnc6c(N)nc(F)nc65)O[C@@H]4COP(=O)(O)O[C@@H]2[C@@H]3O)c(=O)[nH]1 [Compound 54, (1R,6R,8R,9R,10R,15R,17R,18S)-8-(6-amino-2-fluoro-9H-purin-9-yl)-17-(2-amino-6-oxo-6,9-dihydro-1H-purin-9-yl)-9-fluoro-3,12,18-trihydroxy-2,4,7,11,14,16-hexaoxa-3λ^5,12λ^5-diphosphatricyclo[13.2.1.0^6,10]octadecane-3,12-dione] |
| 22.9 | 10 | 15.2 | Nc1nc2c(ncn2[C@@H]2O[C@@H]3OCP(=O)(O)O[C@H]4C[C@H](n5cnc6c(N)ncnc65)O[C@@H]4COP(=O)(O)O[C@@H]2[C@@H]3O)c(=O)[nH]1 [Compound 55, (1R,6R,8R,10S,15R,17R,18S)-17-(2-amino-6-oxo-6,9-dihydro-1H-purin-9-yl)-8-(6-amino-9H-purin-9-yl)-3,12,18-trihydroxy-2,4,7,11,14,16-hexaoxa-3λ^5,12λ^5-diphosphatricyclo[13.2.1.0^6,10]octadecane-3,12-dione] |
| 16.5 | 50 | 9.5 | Nc1nc2c(ncn2[C@@H]2O[C@@H]3OCP(=O)(O)OC4C[C@H](n5cnc6c(N)nc(Cl)nc65)O[C@@H]4COP(=O)(O)OC2C3O)c(=O)[nH]1 (stereo partly drawn) [Compound 56, (1R,6R,8R,105,15R,17R,185)-8-(6-amino-2-chloro-9H-purin-9-yl)-17-(2-amino-6-oxo-6,9-dihydro-1H-purin-9-yl)-3,12,18-trihydroxy-2,4,7,11,14,16-hexaoxa-3λ^5,12λ^5-diphosphatricyclo[13.2.1.0^6,10]octadecane-3,12-dione] |
| 22.2 | 20 | 14.8 | Nc1nc2c(nnn2[C@@H]2O[C@@H]3OCP(=O)(O)O[C@H]4[C@@H](O)[C@H](n5cnc6c(N)ncnc65)O[C@@H]4COP(=O)(O)O[C@@H]2[C@@H]3O)c(=O)[nH]1 [Compound 57, (1R,6R,8R,9R,10S,15R,17R,18S)-17-{5-amino-7-oxo-3H,6H,7H-[1,2,3]triazolo[4,5-d]pyrimidin-3-yl}-8-(6-amino-9H-purin-9-yl)-3,9,12,18-tetrahydroxy-2,4,7,11,14,16-hexaoxa-3λ^5,12λ^5-diphosphatricyclo[13.2.1.0^6,10]octadecane-3,12-dione] |
| 11.9 | 120 | 8.3 | NC(=O)c1ncn([C@@H]2O[C@@H]3COP(=O)(O)O[C@@H]4[C@H](O)[C@@H](OCP(=O)(O)O[C@H]3[C@H]2O)O[C@H]4n2cnc3c(=O)[nH]c(N)nc32)c1N [Compound 58, 5-amino-1-[(1R,6R,8R,9R,10S,15R,17R,18S)-17-(2-amino-6-oxo-6,9-dihydro-1H-purin-9-yl)-3,9,12,18-tetrahydroxy-3,12-dioxo-2,4,7,11,14,16-hexaoxa-3λ^5,12λ^5-diphosphatricyclo[13.2.1.0^6,10]octadecan-8-yl]-1H-imidazole-4-carboxamide] |
| 10 | 1100 | 1.8 | Nc1ncnc2c1ncn2[C@@H]1O[C@@H]2OCP(=O)(O)O[C@@H]3[C@H](O)[C@@H](COP(=O)(O)O[C@H]2[C@H]1O)C[C@H]3n1cnc2c(=O)[nH]cnc21 [Compound 59, (1S,6R,8R,9R,10S,15R,17R,18R)-8-(6-amino-9H-purin-9-yl)-3,9,12,18-tetrahydroxy-17-(6-oxo-6,9-dihydro-1H-purin-9-yl)-2,5,7,11,13-pentaoxa-3λ^5,12λ^5-diphosphatricyclo[13.2.1.0^6,10]octadecane-3,12-dione] |
